This is an account of results in patent US20240150334A1, “HSD17B13 INHIBITORS AND/OR DEGRADERS” (Pfizer Inc., priority 2022, published 2024).

The target in one test is HSD17B13 enzyme (Homo sapiens (Human), UniProt Q7Z5P4). Kind of test: hHSD17B13 IC50 Assay (FAC beta-estradiol), purified protein enzyme activity assay with NAD(P)H-Glo luciferase readout. The conditions noted are these: geometric mean, 12 μM FAC beta-estradiol, 500 μM NAD+, read-out: hHSD17B13_IC50 GMean IC50. The class given is biochemical. How it is done: The following protocols may of course be varied by those skilled in the art. hHSD17B13 IC50 Assay (FAC beta-estradiol)
HSD17B13 enzyme inhibition potency of test compounds was determined using a purified protein biochemical enzyme activity assay, using NAD(P)H-Glo luciferase readout (Promega). HSD17B13 enzyme uses the oxidized form of nicotinamide adenine dinucleotide (NAD+) as a cofactor during metabolism of Beta-Estradiol (substrate) to […], while converting NAD+ to the reduced form (NADH). The Promega NAD(P)H-Glo™ assay is a homogeneous bioluminescent assay that generates a light signal from biochemical reactions that contain NADH (or nicotinamide adenine dinucleotide phosphate, NADPH). In the presence of NADH (or NADPH), the enzyme Reductase reduces a proluciferin reductase substrate to form luciferin. Luciferin then is quantified using Ultra-Glo™ Recombinant Luciferase (rLuciferase), and the light signal produced is proportional to the amount of NAD(P)H in the sample. […] The reaction was initiated by the addition of 2 μL/well purified HSD17B13 protein (30 nM FAC in assay buffer). Compound, substrate mix and HSD17B13 protein was incubated in the dark at room temperature for 2 hours before the addition of 3 μL/well NAD(P)H-Glo detection reagent, prepared from luciferase detection reagent and reductase/reductase substrate, as per manufacturer's instructions (Promega, G9061). Detection reagent was incubated in the dark for 1 hour at room temperature before plates were read on the Envision plate reader (Perkin Elmer) using a luminescent protocol. Data expressed as relative luminescent units (RLUs) were then normalized to control wells using Activity Base (IDBS). Zero percent effect (ZPE) was defined as RLUs generated from uninhibited HSD17B13 protein (vehicle control).

The next test has as its target wild type human HSD17B13 (Homo sapiens (Human), UniProt Q7Z5P4). Briefly: HEK_Beta-Est LCMS_IC50_Tekcel, whole-cell HEK-HSD17B13 inhibition assay, estrone production by LCMS. The class given is cell-based. Conditions: geometric mean, HEK cells stably expressing wild type human HSD17B13, 25 μM FAC beta-estradiol, read-out: HEK_Beta-Est LCMS_IC50—Tekcel GMean IC50. The method in brief:
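Readout was LCMS quantitation of estrone made from beta-estradiol with NAD+ as cofactor. Whole HEK-HSD17B13 cells were given compound for 1 hour, then the reaction for 2 hours, both at 37° C. Product area ratios were normalized to vehicle controls as zero percent effect.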

Counter-ions that a name gives are not always drawn.

Chain of wild type human HSD17B13 (Q7Z5P4 20-300): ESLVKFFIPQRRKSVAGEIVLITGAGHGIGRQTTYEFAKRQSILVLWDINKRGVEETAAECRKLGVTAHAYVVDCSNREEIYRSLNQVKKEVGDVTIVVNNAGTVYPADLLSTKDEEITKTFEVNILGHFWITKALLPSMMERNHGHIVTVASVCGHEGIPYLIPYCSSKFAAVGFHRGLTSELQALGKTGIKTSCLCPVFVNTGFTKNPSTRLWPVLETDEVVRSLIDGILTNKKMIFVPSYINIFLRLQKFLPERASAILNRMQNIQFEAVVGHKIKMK
Chain of HSD17B13 enzyme (Q7Z5P4 20-300): as above

As for `O=C(NC[C@H]1CC[C@H](N2Cc3cc(Cl)ccc3C2=O)CC1)c1cc(F)c(O)cc1F` [Example 186, N-{[(1r,4r)-4-(5-chloro-1-oxo-1,3-dihydro-2H-isoindol-2-yl)cyclohexyl]methyl}-2,5-difluoro-4-hydroxybenzamide], the 50% inhibitory concentration (IC50) worked out at 0.015 µM at HSD17B13 enzyme and 0.48 µM on wild type human HSD17B13. Regarding `O=C(NC[C@H]1CC[C@H](n2cc3ccc(-c4ncc(C5CC5)cn4)cc3n2)CC1)c1cc(F)c(O)c(F)c1` [Example 54, N-({(1r,4r)-4-[6-(5-cyclopropylpyrimidin-2-yl)-2H-indazol-2-yl]cyclohexyl}methyl)-3,5-difluoro-4-hydroxybenzamide], the half-inhibitory concentration (IC50) stood at 0.0095 µM at HSD17B13 enzyme and 0.23 µM at wild type human HSD17B13. The like results for `O=C(NC[C@]12CC[C@](c3nc(-c4ccc(C(F)(F)F)nc4)no3)(CC1)CC2)c1cc(F)c(O)cc1F` [Example 195, 2,5-difluoro-4-hydroxy-N-[(4-{3-[6-(trifluoromethyl)pyridin-3-yl]-1,2,4-oxadiazol-5-yl}bicyclo [2.2.2]octan-1-yl)methyl]benzamide] were, in that order, 0.016 µM and 0.39 µM.

On to `O=C(NC[C@H]1CC[C@H](n2cc3ccc(-c4ccccc4)cc3n2)CC1)c1cc(F)c(O)c(F)c1` [Example 68, 3,5-difluoro-4-hydroxy-N-{[(1r,4r)-4-(6-phenyl-2H-indazol-2-yl)cyclohexyl]methyl} benzamide], for which the IC50 on HSD17B13 enzyme is 0.0078 µM; on wild type human HSD17B13, 0.27 µM.

In the case of `O=C(NC[C@]12CC[C@](c3nc(-c4ccc(C(F)(F)F)nn4)no3)(CC1)CC2)c1cc(F)c(O)cc1F` [Example 185, 2,5-difluoro-4-hydroxy-N-[(4-{3-[6-(trifluoromethyl)pyridazin-3-yl]-1,2,4-oxadiazol-5-yl}bicyclo[2.2.2]octan-1-yl)methyl]benzamide], the IC50 on HSD17B13 enzyme was determined as 0.0037 µM; at wild type human HSD17B13, 0.14 µM.

`O=C(NC[C@]12CC[C@](c3noc(-c4cccc(OS(=O)(=O)F)c4)n3)(CC1)CC2)c1cc(F)c(O)c(F)c1` [Example 190, 3-(3-{4-[(3,5-difluoro-4-hydroxybenzamido)methyl]bicyclo[2.2.2]octan-1-yl}-1,2,4-oxadiazol-5-yl) phenyl sulfurofluoridate]: the half-maximal inhibitory concentration (IC50) on HSD17B13 enzyme came to 0.0086 µM; on wild type human HSD17B13 it was 0.42 µM. Turning to `CC(C)(O)c1cncc(-c2ccc3cn([C@H]4CC[C@H](CNC(=O)c5cc(F)c(O)c(F)c5)CC4)nc3c2)c1` [Example 59, 3,5-difluoro-4-hydroxy-N-{[(1r,4r)-4-{6-[5-(2-hydroxypropan-2-yl)pyridin-3-yl]-2H-indazol-2-yl}cyclohexyl]methyl}benzamide], the values for the half-inhibitory concentration (IC50) at HSD17B13 enzyme and on wild type human HSD17B13 were 0.011 µM and 0.47 µM, respectively.

Turning to `O=C(NC[C@H]1CC[C@H](n2cc3cc(C(F)(F)F)ccc3n2)CC1)c1cc(F)c(O)c(F)c1F` [Example 182, 2,3,5-trifluoro-4-hydroxy-N-({(1r,4r)-4-[5-(trifluoromethyl)-2H-indazol-2-yl]cyclohexyl}methyl) benzamide], the values for the IC50 at HSD17B13 enzyme and on wild type human HSD17B13 were 0.016 µM and 0.23 µM, respectively. Turning to `CS(=O)(=O)c1ccc(-c2noc([C@H]3CC[C@H](CNC(=O)c4cc(F)c(O)c(F)c4)CC3)n2)cc1` [Example 128, 3,5-difluoro-4-hydroxy-N-{[(1r,4r)-4-{3-[4-(methanesulfonyl)phenyl]-1,2,4-oxadiazol-5-yl}cyclohexyl]methyl} benzamide], the half-maximal inhibitory concentration (IC50) at HSD17B13 enzyme came out at 0.016 µM; on wild type human HSD17B13 it was 0.4 µM. With `Cc1ccnc(-c2ccc3cn([C@H]4CC[C@H](CNC(=O)c5cc(F)c(O)c(F)c5)CC4)nc3c2)n1` [Example 53, 3,5-difluoro-4-hydroxy-N-({(1r,4r)-4-[6-(4-methylpyrimidin-2-yl)-2H-indazol-2-yl]cyclohexyl}methyl)benzamide], the values for the IC50 on HSD17B13 enzyme and on wild type human HSD17B13 were 0.0044 µM and 0.2 µM, respectively. Turning to `O=C(NC[C@H]1CC[C@H](n2cc3ccc(C(F)(F)F)cc3n2)CC1)c1cc(F)c(O)c(F)c1` [Example 137, 3,5-difluoro-4-hydroxy-N-({(1r,4r)-4-[6-(trifluoromethyl)-2H-indazol-2-yl]cyclohexyl}methyl) benzamide, ammonium salt], the half-inhibitory concentration (IC50) was found to be 0.025 µM on HSD17B13 enzyme and 0.28 µM on wild type human HSD17B13. Consider `COc1ccc2cn([C@H]3CC[C@H](CNC(=O)c4cc(F)c(O)c(F)c4)CC3)nc2c1` [Example 23, 3,5-difluoro-4-hydroxy-N-{[(1r,4r)-4-(6-methoxy-2H-indazol-2-yl)cyclohexyl]methyl} benzamide], for which the half-inhibitory concentration (IC50) at HSD17B13 enzyme stood at 0.02 µM. Take `O=C(NC[C@H]1CC[C@H](c2noc(-c3ccc(C(F)(F)F)cn3)n2)CC1)c1cc(F)c(O)c(F)c1` [Example 13, 3,5-Difluoro-4-hydroxy-N-{[(1r,4r)-4-{5-[5-(trifluoromethyl)pyridin-2-yl]-1,2,4-oxadiazol-3-yl}cyclohexyl]methyl}benzamide]: the IC50 at HSD17B13 enzyme was determined as 0.017 µM; on wild type human HSD17B13 it was 0.47 µM. Turning to `COc1cc2cn([C@H]3CC[C@H](CNC(=O)c4cc(F)c(O)c(F)c4)CC3)nc2cn1` [Example 6, 3,5-Difluoro-4-hydroxy-N-{[(1r,4r)-4-(5-methoxy-2H-pyrazolo[3,4-c]pyridin-2-yl)cyclohexyl]methyl}benzamide], the half-inhibitory concentration (IC50) at HSD17B13 enzyme came out at 0.021 µM; on wild type human HSD17B13, 0.44 µM.

Regarding `COc1cnc(-c2ccc3cn([C@H]4CC[C@H](CNC(=O)c5cc(F)c(O)c(F)c5)CC4)nc3c2)nc1` [Example 66, 3,5-difluoro-4-hydroxy-N-({(1r,4r)-4-[6-(5-methoxypyrimidin-2-yl)-2H-indazol-2-yl]cyclohexyl}methyl) benzamide], the half-inhibitory concentration (IC50) is 0.0075 µM at HSD17B13 enzyme and 0.18 µM on wild type human HSD17B13.

On to `O=C(NC[C@H]1CC[C@H](n2cc3cc(-c4cccnc4)ncc3n2)CC1)c1cc(F)c(O)c(F)c1` [Example 199, 3,5-difluoro-4-hydroxy-N-({(1r,4r)-4-[5-(pyridin-3-yl)-2H-pyrazolo[3,4-c]pyridin-2-yl]cyclohexyl}methyl) benzamide], for which the IC50 at HSD17B13 enzyme was 0.0088 µM; on wild type human HSD17B13, 0.37 µM. As for `Cc1noc([C@H]2CC[C@H](CNC(=O)c3cc(F)c(O)c(F)c3)CC2)n1` [Example 213, 3,5-difluoro-4-hydroxy-N-{[(1r,4r)-4-(3-methyl-1,2,4-oxadiazol-5-yl)cyclohexyl]methyl}benzamide], on HSD17B13 enzyme, the concentration for half-maximal inhibition (IC50) amounted to 0.064 µM. Consider `Cc1noc([C@H]2CC[C@H](CNC(=O)c3ccc(O)c(F)c3)CC2)n1` [Example 214, 3-fluoro-4-hydroxy-N-{[(1r,4r)-4-(3-methyl-1,2,4-oxadiazol-5-yl)cyclohexyl]methyl} benzamide], for which, at HSD17B13 enzyme, the IC50 stood at 0.29 µM. On to `COc1ccc(-c2ccc3cn([C@H]4CC[C@H](CNC(=O)c5cc(F)c(O)c(F)c5)CC4)nc3c2)cn1` [Example 108, 3,5-difluoro-4-hydroxy-N-({(1r,4r)-4-[6-(6-methoxy-pyridin-3-yl)-2H-indazol-2-yl]cyclohexyl}methyl) benzamide, trifluoroacetate salt], for which the IC50 at wild type human HSD17B13 was found to be 0.14 µM.

Turning to `Cc1nsc(-c2ccc3cn([C@H]4CC[C@H](CNC(=O)c5cc(F)c(O)c(F)c5)CC4)nc3c2)n1` [Example 107, 3,5-difluoro-4-hydroxy-N-({(1r,4r)-4-[6-(3-methyl-1,2,4-thiadiazol-5-yl)-2H-indazol-2-yl]cyclo-hexyl}methyl) benzamide], the IC50 on wild type human HSD17B13 turned out to be 0.16 µM. Take `COc1nccc(-c2ccc3cn([C@H]4CC[C@H](CNC(=O)c5cc(F)c(O)c(F)c5)CC4)nc3c2)n1` [Example 109, 3,5-difluoro-4-hydroxy-N-({(1r,4r)-4-[6-(2-methoxy-pyrimidin-4-yl)-2H-indazol-2-yl]cyclohexyl}methyl) benzamide]: the half-inhibitory concentration (IC50) on wild type human HSD17B13 amounted to 0.17 µM. Still for that read-out and setting: next, `O=C(NC[C@H]1CC[C@H](n2cc3ccc(-c4ccn5nccc5c4)cc3n2)CC1)c1cc(F)c(O)c(F)c1` [Example 89, 3,5-difluoro-4-hydroxy-N-({(1r,4r)-4-[6-(pyrazolo[1,5-a]pyridin-5-yl)-2H-indazol-2-yl]cyclohexyl}methyl) benzamide, trifluoroacetate salt]: 0.13 µM; `Cn1cc(-c2ccn3cc([C@H]4CC[C@H](CNC(=O)c5cc(F)c(O)c(F)c5F)CC4)nc3c2)cn1` [Example 30, 2,3,5-trifluoro-4-hydroxy-N-({(1r,4r)-4-[7-(1-methyl-1H-pyrazol-4-yl)imidazo[1,2-a]pyridin-2-yl]cyclohexyl}methyl) benzamide]: 0.36 µM; `O=C(NC[C@H]1CC[C@H](n2cc3cc(-c4cncnc4)ccc3n2)CC1)c1cc(F)c(O)c(F)c1` [Example 157, 3,5-difluoro-4-hydroxy-N-({(1r,4r)-4-[5-(pyrimidin-5-yl)-2H-indazol-2-yl]cyclohexyl}methyl) benzamide, trifluoroacetate salt]: 0.27 µM.
